What was measured:
[1] = target: Phosphatidylinositol 4,5-bisphosphate 3-kinase catalytic subunit gamma isoform (Homo sapiens, UniProt P48736); assay: Inhibition of PI3Kgamma by kinobeads assay
[2] = target: Phosphatidylinositol 4,5-bisphosphate 3-kinase catalytic subunit beta isoform (Homo sapiens, UniProt P42338); assay: Inhibition of PI3Kbeta assessed as change in pIC50 by kinobeads assay
[3] = target: Phosphatidylinositol 4,5-bisphosphate 3-kinase catalytic subunit alpha isoform (Homo sapiens, UniProt P42336); assay: Inhibition of PI3Kalpha assessed as change in pIC50 by kinobeads assay
Mus musculus = assay: Antiinflammatory activity in mouse IL-8-induced air-pouch model assessed as inhibition of granulocyte migration at 3 mg/kg, po; set-up: scale not given: the % may be the effect or the level left
[4] = target: T1, Phosphatidylinositol 4,5-bisphosphate 3-kinase catalytic subunit delta isoform (Homo sapiens, UniProt O00329); assay: Inhibition of PI3Kdelta assessed as change in pIC50 by kinobeads assay
T1 sequence (O00329 whole entry): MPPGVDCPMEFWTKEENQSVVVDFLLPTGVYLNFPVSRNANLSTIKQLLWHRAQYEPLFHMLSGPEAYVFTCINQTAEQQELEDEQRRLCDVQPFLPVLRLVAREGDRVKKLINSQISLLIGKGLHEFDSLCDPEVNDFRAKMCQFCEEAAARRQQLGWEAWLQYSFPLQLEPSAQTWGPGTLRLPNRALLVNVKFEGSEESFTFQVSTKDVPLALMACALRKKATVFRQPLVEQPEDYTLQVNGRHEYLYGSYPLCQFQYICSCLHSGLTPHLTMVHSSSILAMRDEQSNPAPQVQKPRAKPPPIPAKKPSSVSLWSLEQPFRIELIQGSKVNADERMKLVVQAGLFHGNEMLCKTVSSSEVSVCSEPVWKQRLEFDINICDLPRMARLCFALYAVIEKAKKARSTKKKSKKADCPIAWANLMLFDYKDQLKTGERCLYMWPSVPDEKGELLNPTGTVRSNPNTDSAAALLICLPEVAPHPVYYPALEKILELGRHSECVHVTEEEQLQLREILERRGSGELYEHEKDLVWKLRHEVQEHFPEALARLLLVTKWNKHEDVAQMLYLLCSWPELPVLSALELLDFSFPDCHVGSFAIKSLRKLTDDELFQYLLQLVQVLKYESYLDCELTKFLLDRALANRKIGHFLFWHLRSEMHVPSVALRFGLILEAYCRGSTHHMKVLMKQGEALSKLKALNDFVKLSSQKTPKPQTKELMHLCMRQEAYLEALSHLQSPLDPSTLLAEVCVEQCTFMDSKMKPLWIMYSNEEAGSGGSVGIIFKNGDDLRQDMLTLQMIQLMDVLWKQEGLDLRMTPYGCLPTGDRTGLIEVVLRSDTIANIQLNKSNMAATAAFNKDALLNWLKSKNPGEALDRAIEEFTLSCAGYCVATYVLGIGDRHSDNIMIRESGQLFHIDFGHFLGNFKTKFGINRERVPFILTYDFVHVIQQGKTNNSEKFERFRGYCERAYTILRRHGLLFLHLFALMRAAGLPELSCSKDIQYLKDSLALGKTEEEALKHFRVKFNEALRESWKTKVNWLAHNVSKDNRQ

Hepatocyte [5] = assay: Metabolic stability in rat hepatocytes measured per gram of tissue; type: ADME, cell-based
Hepatocyte [6] = assay: Metabolic stability in human hepatocytes measured per gram of tissue; type: ADME, cell-based
Hepatocyte [7] = assay: Metabolic stability in mouse hepatocytes measured per gram of tissue; type: ADME, cell-based
[8] = target: Phosphatidylinositol 4,5-bisphosphate 3-kinase catalytic subunit delta isoform/gamma isoform (Homo sapiens, UniProt P48736+O00329); assay: Inhibition of PI3Kgamma/delta by neutrophil migration assay
[9] = AUC in rat […] at 5 mg/kg, po; type: ADME, organism-based; set-up: dose 5 mg/kg, route oral
[10] = Cmax in rat […] at 5 mg/kg, po; type: ADME, organism-based; set-up: dose 5 mg/kg, route oral
[11] = Oral bioavailability in Wistar rat at 5 mg/kg; conditions: in vivo
[12] = Half life in rat […] at 5 mg/kg, po; type: ADME, organism-based; set-up: dose 5 mg/kg, route oral
Liver microsomes = assay: Volume of distribution at steady state […] at 5 mg/kg, po; type: ADME, organism-based; set-up: dose 5 mg/kg, route oral

Phosphatidylinositol 4,5-bisphosphate 3-kinase catalytic subunit gamma isoform, sequence (P48736 whole entry, canonical isoform): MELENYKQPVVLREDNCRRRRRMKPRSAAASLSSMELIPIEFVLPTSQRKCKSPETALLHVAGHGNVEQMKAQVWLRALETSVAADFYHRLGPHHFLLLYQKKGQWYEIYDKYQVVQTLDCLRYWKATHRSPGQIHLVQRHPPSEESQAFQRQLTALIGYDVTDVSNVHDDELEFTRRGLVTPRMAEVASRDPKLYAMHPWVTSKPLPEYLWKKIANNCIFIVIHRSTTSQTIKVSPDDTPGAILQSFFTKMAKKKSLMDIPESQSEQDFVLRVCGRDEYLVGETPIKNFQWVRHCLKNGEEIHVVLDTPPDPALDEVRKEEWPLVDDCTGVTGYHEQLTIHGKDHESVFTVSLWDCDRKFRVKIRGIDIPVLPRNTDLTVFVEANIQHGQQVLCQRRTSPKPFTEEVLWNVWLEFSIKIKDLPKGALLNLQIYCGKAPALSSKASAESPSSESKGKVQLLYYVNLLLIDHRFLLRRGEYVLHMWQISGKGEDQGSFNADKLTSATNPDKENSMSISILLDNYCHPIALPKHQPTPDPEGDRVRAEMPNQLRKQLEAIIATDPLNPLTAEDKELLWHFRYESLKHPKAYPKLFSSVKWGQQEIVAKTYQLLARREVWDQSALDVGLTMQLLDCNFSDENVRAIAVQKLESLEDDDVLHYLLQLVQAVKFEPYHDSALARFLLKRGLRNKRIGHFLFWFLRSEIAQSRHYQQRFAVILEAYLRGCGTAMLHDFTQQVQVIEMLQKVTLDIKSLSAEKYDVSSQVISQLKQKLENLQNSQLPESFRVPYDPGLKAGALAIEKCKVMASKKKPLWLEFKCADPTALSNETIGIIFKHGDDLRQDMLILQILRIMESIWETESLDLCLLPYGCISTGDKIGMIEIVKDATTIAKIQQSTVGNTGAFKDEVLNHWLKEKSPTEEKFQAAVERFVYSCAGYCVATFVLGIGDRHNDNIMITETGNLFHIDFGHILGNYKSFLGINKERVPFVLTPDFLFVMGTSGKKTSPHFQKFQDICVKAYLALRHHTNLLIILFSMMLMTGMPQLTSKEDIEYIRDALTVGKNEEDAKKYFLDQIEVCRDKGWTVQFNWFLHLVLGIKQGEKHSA
Phosphatidylinositol 4,5-bisphosphate 3-kinase catalytic subunit alpha isoform, sequence (P42336 whole entry, canonical isoform): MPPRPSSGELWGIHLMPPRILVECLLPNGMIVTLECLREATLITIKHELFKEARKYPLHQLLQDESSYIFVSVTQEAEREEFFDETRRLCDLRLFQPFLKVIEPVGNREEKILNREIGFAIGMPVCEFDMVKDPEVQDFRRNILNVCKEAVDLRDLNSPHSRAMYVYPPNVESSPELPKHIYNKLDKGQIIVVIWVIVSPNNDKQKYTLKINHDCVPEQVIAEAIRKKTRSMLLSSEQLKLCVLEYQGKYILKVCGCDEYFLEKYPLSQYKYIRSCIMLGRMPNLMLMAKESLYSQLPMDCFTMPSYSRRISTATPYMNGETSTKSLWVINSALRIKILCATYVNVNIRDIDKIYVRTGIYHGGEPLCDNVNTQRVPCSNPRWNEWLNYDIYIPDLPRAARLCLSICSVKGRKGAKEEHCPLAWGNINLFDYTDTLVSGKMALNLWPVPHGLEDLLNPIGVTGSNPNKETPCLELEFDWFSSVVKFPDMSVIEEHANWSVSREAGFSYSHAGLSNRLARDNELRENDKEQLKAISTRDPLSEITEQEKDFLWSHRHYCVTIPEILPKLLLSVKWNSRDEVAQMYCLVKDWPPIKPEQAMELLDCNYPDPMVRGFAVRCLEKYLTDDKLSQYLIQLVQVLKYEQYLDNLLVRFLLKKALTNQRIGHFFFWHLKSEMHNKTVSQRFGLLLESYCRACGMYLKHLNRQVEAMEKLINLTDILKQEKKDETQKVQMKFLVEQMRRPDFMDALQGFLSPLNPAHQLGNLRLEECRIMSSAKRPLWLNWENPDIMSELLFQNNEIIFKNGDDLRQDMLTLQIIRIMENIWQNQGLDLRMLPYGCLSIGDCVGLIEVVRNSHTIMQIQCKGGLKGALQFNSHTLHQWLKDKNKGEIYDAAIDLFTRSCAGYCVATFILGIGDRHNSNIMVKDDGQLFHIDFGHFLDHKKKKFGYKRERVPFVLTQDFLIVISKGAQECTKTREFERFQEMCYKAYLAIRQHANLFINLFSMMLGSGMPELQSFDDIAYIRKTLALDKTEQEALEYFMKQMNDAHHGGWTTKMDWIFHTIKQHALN
Phosphatidylinositol 4,5-bisphosphate 3-kinase catalytic subunit beta isoform, sequence (P42338 whole entry, canonical isoform): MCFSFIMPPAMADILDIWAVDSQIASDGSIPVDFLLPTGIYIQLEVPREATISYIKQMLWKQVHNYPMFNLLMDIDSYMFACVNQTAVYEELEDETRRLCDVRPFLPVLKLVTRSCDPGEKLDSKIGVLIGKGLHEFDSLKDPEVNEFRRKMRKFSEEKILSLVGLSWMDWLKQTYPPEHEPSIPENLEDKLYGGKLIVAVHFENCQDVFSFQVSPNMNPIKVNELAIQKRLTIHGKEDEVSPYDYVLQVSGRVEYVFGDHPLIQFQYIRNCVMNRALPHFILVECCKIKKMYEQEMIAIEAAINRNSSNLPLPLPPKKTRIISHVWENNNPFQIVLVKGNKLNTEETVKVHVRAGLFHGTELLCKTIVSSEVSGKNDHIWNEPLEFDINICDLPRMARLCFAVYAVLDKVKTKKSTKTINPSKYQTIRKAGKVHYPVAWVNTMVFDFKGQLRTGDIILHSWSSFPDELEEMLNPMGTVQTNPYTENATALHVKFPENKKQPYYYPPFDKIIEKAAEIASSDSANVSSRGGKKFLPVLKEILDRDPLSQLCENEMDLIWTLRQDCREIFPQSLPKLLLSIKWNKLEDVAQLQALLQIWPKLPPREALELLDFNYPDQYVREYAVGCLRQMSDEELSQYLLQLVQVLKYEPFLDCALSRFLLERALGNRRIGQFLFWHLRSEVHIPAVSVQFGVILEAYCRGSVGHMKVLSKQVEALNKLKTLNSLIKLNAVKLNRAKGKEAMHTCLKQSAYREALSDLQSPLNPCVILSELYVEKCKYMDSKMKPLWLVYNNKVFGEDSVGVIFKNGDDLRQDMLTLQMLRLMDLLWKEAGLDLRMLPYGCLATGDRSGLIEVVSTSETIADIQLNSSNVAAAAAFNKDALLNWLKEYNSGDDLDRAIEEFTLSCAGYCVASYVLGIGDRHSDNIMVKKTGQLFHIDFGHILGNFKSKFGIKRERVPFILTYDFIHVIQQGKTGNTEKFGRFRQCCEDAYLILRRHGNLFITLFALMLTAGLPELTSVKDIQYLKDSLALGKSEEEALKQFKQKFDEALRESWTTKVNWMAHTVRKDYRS

| SMILES | IC50 [1] [µM] | pIC50 [8] | also measured |
| --- | --- | --- | --- |
| CC(C)(C)NS(=O)(=O)c1cncc(-c2cc(F)c3nc(N)nn3c2)c1 | 0.0251 |  | IC50 [2]: 1 µM; IC50 [3]: > 10 µM; Activity (Mus musculus): 29%; IC50 [4]: 7.94 µM |
| CS(=O)(=O)c1cncc(-c2ccn3nc(N)nc3c2)c1 | 0.0794 |  |  |
| CC(C)(C)NS(=O)(=O)c1cncc(-c2cc(F)n3nc(N)nc3c2)c1 | 0.0158 | 6.1 | CLint (Hepatocyte [5]): 7.5 mL/min/g; CLint (Hepatocyte [6]): 2.5 mL/min/g; CLint (Hepatocyte [7]): 36.1 mL/min/g |
| CCCNS(=O)(=O)c1cncc(-c2ccn3nc(N)nc3c2)c1 | 0.0316 | 6.2 | IC50 [4]: < 20000 µM |
| CC(C)NS(=O)(=O)c1cncc(-c2ccn3nc(N)nc3c2)c1 | 0.0251 | 6.3 |  |
| Nc1nc2cc(-c3cncc(S(=O)(=O)NCC(F)(F)F)c3)ccn2n1 | 0.02 | 5.9 |  |
| CC(C)(NS(=O)(=O)c1cncc(-c2ccn3nc(N)nc3c2)c1)C(F)(F)F | 0.02 | 5.6 |  |
| Nc1nc2cc(-c3cncc(S(=O)(=O)Nc4ccccc4)c3)ccn2n1 | 0.0398 | 5 |  |
| Nc1nc2cc(-c3cncc(S(=O)(=O)NCc4ccccc4)c3)ccn2n1 | 0.1 |  |  |
| CCN(CC)S(=O)(=O)c1cncc(-c2ccn3nc(N)nc3c2)c1 | 0.00794 | 5.9 |  |
| CC1(C)CCN1S(=O)(=O)c1cncc(-c2ccn3nc(N)nc3c2)c1 | 0.0251 | 5.7 |  |
| Nc1nc2cc(-c3cncc(S(N)(=O)=O)c3)ccn2n1 | 0.02 | 6.1 |  |
| CNS(=O)(=O)c1cncc(-c2ccn3nc(N)nc3c2)c1 | 0.0251 | 6.3 | AUC [9]: 6.7 µM·h; Cmax [10]: 5 µM; bioavailability [11]: 56%; half-life [12]: 1.2 h; Vdss (Liver microsomes): 2.2 L/kg |
